Experimental data reported in PubChem BioAssay (NCI).
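Step 1: Grow cells in 96-well plates. Step 2: Expose to compound for 48 hours at 5 concentrations. Step 3: Interpolate endpoints linearly; if unreached, use highest concentration. GI50 = concentration required for 50% inhibition of growth. TGI: concentration producing complete growth inhibition.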

Legend:
Experiment in all cases: NCI tumour cell line growth inhibition, 48 h
[1] = system: 786-0 renal
[2] = system: A498 renal
[3] = system: A549 NSCLC
[4] = system: ACHN renal
[5] = system: BT-549 breast
[6] = system: CAKI-1 renal
[7] = system: CCRF-CEM leukemia
[8] = system: COLO 205 colon
[9] = system: DU-145 prostate
[10] = system: EKVX NSCLC
[11] = system: HCC-2998 colon
[12] = system: HCT-116 colon
[13] = system: HCT-15 colon
[14] = system: HL-60(TB) leukemia
[15] = system: HOP-62 NSCLC
[16] = system: HOP-92 NSCLC
[17] = system: HS 578T breast
[18] = system: HT29 colon
[19] = system: IGROV1 ovarian
[20] = system: K-562 leukemia
[21] = system: KM12 colon
[22] = system: LOX IMVI melanoma
[23] = system: M14 melanoma
[24] = system: MALME-3M melanoma
[25] = system: MCF7 breast
[26] = system: MDA-MB-231 breast
[27] = system: MDA-MB-435
[28] = system: MOLT-4 leukemia
[29] = system: NCI-H226 lung
[30] = system: NCI-H23 lung
[31] = system: NCI-H460 lung
[32] = system: NCI-H522 lung
[33] = system: NCI/ADR-RES ovarian
[34] = system: OVCAR-3 ovarian
[35] = system: OVCAR-4 ovarian
[36] = system: OVCAR-5 ovarian
[37] = system: OVCAR-8 ovarian
[38] = system: PC-3 prostate
[39] = system: RPMI-8226 leukemia
[40] = system: RXF 393 renal
[41] = system: SF-268 CNS
[42] = system: SF-295 CNS
[43] = system: SF-539 CNS
[44] = system: SK-MEL-2 melanoma
[45] = system: SK-MEL-28 melanoma
[46] = system: SK-MEL-5 melanoma
[47] = system: SK-OV-3 ovarian
[48] = system: SN12C renal
[49] = system: SNB-19 CNS
[50] = system: SNB-75 CNS
[51] = system: SR leukemia
[52] = system: SW-620 colon
[53] = system: T-47D breast
[54] = system: TK-10 renal
[55] = system: U251 CNS
[56] = system: UACC-257 melanoma
[57] = system: UACC-62 melanoma
[58] = system: UO-31 renal

SMILES: COc1cc(C)[nH]c(=O)c1CN1CCc2c(Cl)cc([C@H](OC)C3COC3)c(Cl)c2C1=O
- GI50 [1]: > 100 µM
- TGI [1]: > 100 µM
- GI50 [2]: > 100 µM
- TGI [2]: > 100 µM
- GI50 [3]: > 100 µM
- TGI [3]: > 100 µM
- GI50 [4]: > 100 µM
- TGI [4]: > 100 µM
- GI50 [5]: > 100 µM
- TGI [5]: > 100 µM
- GI50 [6]: > 100 µM
- TGI [6]: > 100 µM
- GI50 [7]: > 100 µM
- TGI [7]: > 100 µM
- GI50 [8]: > 100 µM
- TGI [8]: > 100 µM
- GI50 [9]: > 100 µM
- TGI [9]: > 100 µM
- GI50 [10]: > 100 µM
- TGI [10]: > 100 µM
- GI50 [11]: > 100 µM
- TGI [11]: > 100 µM
- GI50 [12]: > 100 µM
- TGI [12]: > 100 µM
- GI50 [13]: > 100 µM
- TGI [13]: > 100 µM
- GI50 [14]: > 100 µM
- TGI [14]: > 100 µM
- GI50 [15]: > 100 µM
- TGI [15]: > 100 µM
- GI50 [16]: > 100 µM
- TGI [16]: > 100 µM
- GI50 [17]: > 100 µM
- TGI [17]: > 100 µM
- GI50 [18]: > 100 µM
- TGI [18]: > 100 µM
- GI50 [19]: > 100 µM
- TGI [19]: > 100 µM
- GI50 [20]: > 100 µM
- TGI [20]: > 100 µM
- GI50 [21]: > 100 µM
- TGI [21]: > 100 µM
- GI50 [22]: > 100 µM
- TGI [22]: > 100 µM
- GI50 [23]: > 100 µM
- TGI [23]: > 100 µM
- GI50 [24]: > 100 µM
- TGI [24]: > 100 µM
- GI50 [25]: > 100 µM
- TGI [25]: > 100 µM
- GI50 [26]: > 100 µM
- TGI [26]: > 100 µM
- GI50 [27]: > 100 µM
- TGI [27]: > 100 µM
- GI50 [28]: > 100 µM
- TGI [28]: > 100 µM
- GI50 [29]: > 100 µM
- TGI [29]: > 100 µM
- GI50 [30]: > 100 µM
- TGI [30]: > 100 µM
- GI50 [31]: > 100 µM
- TGI [31]: > 100 µM
- GI50 [32]: > 100 µM
- TGI [32]: > 100 µM
- GI50 [33]: > 100 µM
- TGI [33]: > 100 µM
- GI50 [34]: > 100 µM
- TGI [34]: > 100 µM
- GI50 [35]: > 100 µM
- TGI [35]: > 100 µM
- GI50 [36]: > 100 µM
- TGI [36]: > 100 µM
- GI50 [37]: > 100 µM
- TGI [37]: > 100 µM
- GI50 [38]: > 100 µM
- TGI [38]: > 100 µM
- GI50 [39]: > 100 µM
- TGI [39]: > 100 µM
- GI50 [40]: > 100 µM
- TGI [40]: > 100 µM
- GI50 [41]: > 100 µM
- TGI [41]: > 100 µM
- GI50 [42]: > 100 µM
- TGI [42]: > 100 µM
- GI50 [43]: > 100 µM
- TGI [43]: > 100 µM
- GI50 [44]: > 100 µM
- TGI [44]: > 100 µM
- GI50 [45]: > 100 µM
- TGI [45]: > 100 µM
- GI50 [46]: > 100 µM
- TGI [46]: > 100 µM
- GI50 [47]: > 100 µM
- TGI [47]: > 100 µM
- GI50 [48]: > 100 µM
- TGI [48]: > 100 µM
- GI50 [49]: > 100 µM
- TGI [49]: > 100 µM
- GI50 [50]: > 100 µM
- TGI [50]: > 100 µM
- GI50 [51]: > 100 µM
- TGI [51]: > 100 µM
- GI50 [52]: > 100 µM
- TGI [52]: > 100 µM
- GI50 [53]: 55.4 µM
- TGI [53]: > 100 µM
- GI50 [54]: > 100 µM
- TGI [54]: > 100 µM
- GI50 [55]: > 100 µM
- TGI [55]: > 100 µM
- GI50 [56]: > 100 µM
- TGI [56]: > 100 µM
- GI50 [57]: > 100 µM
- TGI [57]: > 100 µM
- GI50 [58]: > 100 µM
- TGI [58]: > 100 µM
